Measured values published in patent publication US11717557B2, “Use of PRG4 as an anti-inflammatory agent” (Lubris LLC, priority 2015, dated 2023).
pKd: −log10 of the molar value.

Experiments:
CD44 IgG1Fc = molecular target: T1, CD44 IgG1Fc (Homo sapiens, UniProt P16070); assay: Surface plasmon resonance binding of rhPRG4 to CD44 and competition with HMW HA
T1 construct: purchased R & D systems
Procedure: Binding of rhPRG4 to CD44-IgG1Fc was investigated using surface plasmon resonance (Biacore T100, GE Healthcare Lifesciences, NJ, USA). Series S chips were functionalized using the human antibody capture kit (GE Life Sciences) and either CD44-IgG1Fc or IgG1FC was allowed to bind to the surface of the functionalized chips in flow cell 1 (Fc1) and flow cell 2 (Fc2), respectively. rhPRG4 was injected at 30 μL/min for 8 min at concentrations of 300, 250, 200, 150, 100 and 50 μg/mL followed by a 10 min dissociation using 0.1M HEPES, 1.5M NaCl, 30 mM EDTA, and 0.5% P20 (GE Life Sciences). The surface of the chip was regenerated at the end of each cycle with 1 min pulse of 3M MgCl2. Each analyte concentration was injected in duplicate. The resulting curves were double referenced (i.e. Fc2-Fc1, followed by subtraction of the 0 μg/mL curve). The binding kinetics and binding affinity were determined by BiaEvaluation software, using 1:1 binding/conformational change model or by steady-state equilibrium, respectively. To study the competition between rhPRG4 and HMW HA in binding to CD44, rhPRG4 was injected at concentrations ranging between 0 and 300 μg/mL as described above. Following the end of dissociation phase, HMW HA was injected at 50 μg/mL (30 μL per min) for 1 min. […]

[1] = test system: NFκB nuclear translocation in RA-FLS; assay: NFκB nuclear translocation after TNF-α stimulation of RA-FLS; format: cell-based; conditions: TNF-α 5 ng/mL; rhPRG4 200 μg/mL or MG 132 3 μM; 24 hours; p<0.001
Procedure: RA-FLS (400,000 cells/well) were cultured and stimulated with TNF-α (5 ng/mL) and treated with rhPRG4 (200 μg/mL) or a commercially available NFκB translocation inhibitor MG 132 (3 μM; Tocris Bioscience) for 24 hours in serum free media. Cells were harvested and nuclear extraction was performed using a commercially available kit (Thermo scientific). Total protein was measured using a micro bicinchonic acid (BCA) kit (Thermo scientific) and 3 μg of nuclear extract of each experimental group were used. The p50 subunit of NFκB was detected in the nuclear extract using a commercially available NFκB DNA binding assay kit (Abcam). Data is presented as the number of fold change in NFκB nuclear levels compared to untreated control. To evaluate whether inhibition of NFκB translocation by rhPRG4 is CD44 dependent, the above experiment was repeated in the presence or absence of IM7 CD44 antibody (1:1,000 dilution). Data represents the average of 3 independent experiments with at least triplicate wells per treatment.

human whole blood = assay: Lubricin on tissue factor mediated inflammatory cytokine generation in whole blood; format: cell-based
Procedure: The effect of lubricin on recombinant tissue factor (TF) mediated inflammatory cytokine generation was studied using Biochip Array technology. In these studies recombiplastin brand (IL Laboratories) tissue factor was used to trigger the generation of inflammatory cytokines in human whole blood. The effect of lubricin at 0.57 mg/mL was studied by supplementing this agent prior to the addition of tissue factor to the whole blood. Tissue factor alone served as a positive control. The blood samples were centrifuged and plasma retrieved. This plasma was then profiled for the inflammatory cytokine profile on the Randox Biochip arrays. TF was supplemented to whole blood in a 1:10 dilution.

Substance: rhPRG4: full-length recombinant human PRG4 (lubricin) glycoprotein produced by CHO-M cells (Lubris), Mr≅240 KDa
- pKd (CD44 IgG1Fc; immobilized CD44-IgG1Fc, based on a rhPRG4 molecular weight of 240 KDa, read-out: apparent Kd): ~7.42
- effect on binding of HMW HA to recombinant CD44 (CD44 IgG1Fc; rhPRG4 0-300 μg/mL, then HMW HA 50 μg/mL, inverse relationship of binding signals): interfered with binding of HMW HA
- NFκB nuclear translocation compared to TNF-α-treated RA-FLS [1]: significantly reduced
- IL-6, IL-8, VEGF, TNF-α, IL-1α, IL-1β, MCP-1 and EGF (human whole blood; lubricin 0.57 mg/mL before tissue factor (1:10), versus TF alone): decrease
- TNF-α and VEGF levels (human whole blood; lubricin 0.57 mg/mL, tissue factor supplemented samples): pronounced decrease
